# Data taken from US10183039B2, “Methods for the production of collagen IV” (Vanderbilt University, priority 2013, dated 2019).
# Read-outs that look alike come from different tables or passages of the source.
# Tests used:
# [1] = system: Drosophila melanogaster w1118; conditions: in vivo
# Experimental: FIGS. 11A-C. […] WT Eggs from 3 day Br-depleted and Br-Added females were collected and transferred to new 35 mm culture dishes filled with 3 ml of vitamin and mineral spiked phytagel as the semi-solid support. 100 μL of Yeast paste±100 μM Br—(200 mg yeast/500 μL ddH2O) was added to the center of each dish. Larvae were transferred to fresh dishes and counted every 24-36 hours. WT flies were reared in the presence of 80 mM total Br-Free NaCl. For Br-Added conditions, both the phytagel and yeast paste were spiked with 100 μM NaBr to ensure constant and consistent exposure. Adults were fed identical food as part of the depletion regime. PxnF07229 homozygous larvae were separated from heterozygous larvae and collected 48 hours after hatching on a Br-Free vs Br-Added plates from parents fed a standard diet. After transfer to these fresh Br-experimental diet plates, they were transferred and counted similarly to the WT larvae under normal 20 mM NaCl conditions. The experimental cohorts [Br-Free (n=34), Br-Added (n=40), Br-Free PxnF07229 (n=14), and Br-Added PxnF07229 (n=19)] were followed until death or 2-days after eclosion of the last fly in the cohort. […] Scale bars in the insets represent 200 μm, and in the whole pictures 500 μm. The image of PxnF07229 larvae is from a Br-Added experimental diet. (FIG. 11C) Representative pictures of the corresponding gut dissections to FIG. 11B. Scale bars are 500 μm.
# (FIG. 17A) Generational Br-depletion scheme (FIG. 17B). Generation 1 survival and time-to-development curves for w^1118 flies on the standard diet vs experimental diets. Embryos from mothers fed a standard diet were placed on the indicated diet, and progeny were scored every 24 hours. […] Data plotted as the group median±interquartile range. N=30 for each group. […] (FIG. 17C) Generation 2 developmental survival on experimental diets. n>40 for each cohort. Tested by Log-Rank test. (FIG. 17D) Percentage of eggs (mean+/−95% C.I.) completing embryogenesis from mothers reared on Br-free^DEP or Br-added^DEP diets for […]. In the Br-free^DEP experimental group, mothers were fed Br-free synthetic diet containing 80 mM total NaCl (Br-free^DEP) for 3 days prior to egg collection. The Br-added^DEP was treated in the same manner except that 100 μM NaBr was added to all food components of the Br-free^DEP synthetic diet. […] Analyzed by the Mann-Whitney U test. (FIG. 17E) Survival curve for w^1118 flies under Br-free^DEP or Br-added^DEP dietary conditions. […] Associated larval Br-content was measured by EINAA. Bonds/hexamer were calculated from the Western blot. […] BMs from 15 independent sections for each group were evaluated for thickness and the histograms plotted. […]
# human peroxidasin [2] = biological target: T1, human peroxidasin (Homo sapiens, UniProt Q92626); conditions: compared with reagent-grade PBS (FIG. 8D)
# Experimental: (§1) (FIG. 8A) Matrix pellets isolated from KI-treated PFHR9 cell culture were extensively washed into 10 mM phosphate buffer (pH 7.4) supplemented with 100 mM KF to maintain ionic strength. Potassium salts of Cl— or Br— were added in indicated amounts. 1 hr reactions at 37° C. were initiated by addition of H2O2 to 1 mM and stopped by freezing at −20° C. […] Reagent KCl was commercially obtained and unaltered prior to analysis. 100 mM solutions were made with 18MΩ deionized water. (FIG. 8C) Coomassie blue stained gel of collagenase digested PFHR-9 matrix reaction assay. Reaction buffered contained 10 mM phosphate buffer (pH 7.4), 100 mM Br-Free or Commercially obtained reagent grade KCl, as well as 1 mM H2O2 and 200 μM PHG where appropriate. […] Reactions were run for 10 minutes at 37° C. with 10 μM H2O2 as the terminal oxidant. Dose-response curve run in the presence of 1× Br-Free PBS. Reactions were quenched with 0.2 mg/ml Catalase, 20 mM Methionine, and 1 mM PHG. EC50 value±95% C.I. from two independent experiments with each data point plotted and fit.
# (§2) HEK293 cells stably transfected with the human peroxidasin coding sequence27 were grown to confluency, and the medium was changed to serum-free DMEM/F12 plus 5 μM hematin plus 5 mM sodium butyrate. […]
# collagen IV = conditions: in vivo
# Experimental: Data plotted as the group median±interquartile range. N=30 for each group. […] (FIG. 17F) Western blot of isolated NC1 domain from larvae treated as in (E), probed with an anti-Drosophila NC1 polyclonal antibody (Extended Experimental Methods). Associated larval Br-content was measured by EINAA. Bonds/hexamer were calculated from the Western blot.
# In Br-free^DEP conditions, the inventors assessed the impact of Br-deficiency on crosslink formation in vivo. The inventors used vkg^454-GFP flies in which the single collagen IV α2 gene locus contains a GFP insertion near the 7S domain. vkg^454-GFP flies were grown on Br-free^DEP, Br-added^DEP and standard diets and biochemically assayed sulfilamine-bond content via immunoblot.
# [3] = cited from earlier work
# human peroxidasin [4] = biological target: T1, human peroxidasin; test: biochemical
# Experimental: as §1, §2
# Experimental for PFHR-9 cells: (FIG. 10A) The murine PFHR-9 cell-culture model of basement membranes was cultured for 7 days in the presence of either commercial DMEM+5% FBS or adapted Br-Free DMEM +5% FBS dialyzed against Br-Free HBSS. Media was changed every 24 hours with the addition of 50 μg/ml ascorbic acid and NaBr added where noted. The cell deposited matrix was harvested, collagenase digested, and subjected to SDS-PAGE. NC1 crosslinking content is graphed as the mean±95% C.I. (n=3) with a representative gel depicted.
# Bromine was systematically eliminated from DMEM by making the media from individual components without chloride counter ions, and using Br-Free chloride as the only halide source.
# T1 sequence (Q92626 27-1479): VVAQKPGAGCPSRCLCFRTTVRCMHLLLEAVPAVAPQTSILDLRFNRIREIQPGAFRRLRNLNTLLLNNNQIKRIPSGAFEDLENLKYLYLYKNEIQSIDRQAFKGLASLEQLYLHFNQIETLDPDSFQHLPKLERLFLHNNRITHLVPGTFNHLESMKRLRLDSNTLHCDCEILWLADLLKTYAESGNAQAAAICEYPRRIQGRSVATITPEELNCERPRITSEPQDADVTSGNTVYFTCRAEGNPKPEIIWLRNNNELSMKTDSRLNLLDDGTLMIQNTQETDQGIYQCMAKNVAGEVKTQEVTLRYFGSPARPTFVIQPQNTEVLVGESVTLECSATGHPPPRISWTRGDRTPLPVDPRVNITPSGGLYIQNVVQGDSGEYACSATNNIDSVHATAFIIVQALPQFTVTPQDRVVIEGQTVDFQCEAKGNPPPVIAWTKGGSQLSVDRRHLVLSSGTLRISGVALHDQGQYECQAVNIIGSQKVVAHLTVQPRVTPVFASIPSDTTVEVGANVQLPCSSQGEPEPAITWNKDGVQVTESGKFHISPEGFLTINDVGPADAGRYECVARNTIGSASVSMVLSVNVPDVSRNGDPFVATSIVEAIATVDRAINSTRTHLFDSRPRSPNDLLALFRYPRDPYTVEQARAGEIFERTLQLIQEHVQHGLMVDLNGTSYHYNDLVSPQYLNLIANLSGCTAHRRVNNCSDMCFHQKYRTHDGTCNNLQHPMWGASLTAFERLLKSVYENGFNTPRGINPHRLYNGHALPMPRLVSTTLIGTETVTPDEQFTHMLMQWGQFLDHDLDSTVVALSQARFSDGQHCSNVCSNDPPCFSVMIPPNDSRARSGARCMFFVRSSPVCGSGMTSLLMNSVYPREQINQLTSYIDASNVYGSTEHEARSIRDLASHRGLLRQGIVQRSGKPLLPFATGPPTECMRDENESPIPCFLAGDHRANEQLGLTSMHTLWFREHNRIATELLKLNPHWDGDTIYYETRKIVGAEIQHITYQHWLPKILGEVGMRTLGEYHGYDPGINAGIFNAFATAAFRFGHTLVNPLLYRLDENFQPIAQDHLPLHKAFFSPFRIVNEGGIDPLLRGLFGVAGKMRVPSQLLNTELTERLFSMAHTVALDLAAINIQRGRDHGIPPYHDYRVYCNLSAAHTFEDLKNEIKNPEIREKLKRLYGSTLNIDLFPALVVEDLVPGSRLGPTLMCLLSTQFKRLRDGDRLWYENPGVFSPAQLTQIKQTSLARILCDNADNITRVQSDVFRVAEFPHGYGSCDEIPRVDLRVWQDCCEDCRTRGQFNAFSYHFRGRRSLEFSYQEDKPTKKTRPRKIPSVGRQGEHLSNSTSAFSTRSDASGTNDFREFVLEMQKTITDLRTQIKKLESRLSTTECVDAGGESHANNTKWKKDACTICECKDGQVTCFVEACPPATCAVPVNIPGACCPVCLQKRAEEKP
compound,measurement,setting,value
Br [bromide],Generation 2 larval survival,[1],rescued
same,developmental progression of PxnF07229 larvae,[1],unable to promote developmental progression
same,median time to eclosion,[1],10 days
same,median time to pupariation,[1],6 days
same,S═N bond formation on Br addition to Br-Free PBS,human peroxidasin [2],recued the degree of S═N bond formation observed in reagent-grade PBS
same,S═N crosslinking in the collagen IV matrix,PFHR-9 cells,rescued physiologic levels of crosslinking
same,"cell proliferation, viability, collagen IV synthesis",PFHR-9 cells,"no observable difference in cell proliferation, viability, or collagen IV synthesis"
same,sulfilimine-bond content in larvae,collagen IV,rescued
same,bromide level at which Bromism occurs,[3]; in vivo,> 12 mmol/L
same,half-life in the human body,[3]; in vivo,12 days
same,serum bromide level at which toxicity (bromism) occurs,[3],~12 mM
same,serum bromide level at which toxicity (bromism) occurs,[3]; listed as Br^−,> 12 mM
same,EC50,human peroxidasin [4],2700 nM
